# Data published in patent US20220062240A1, “METHODS OF TREATING CANCER USING A CLK INHIBITOR” (BioSplice Therapeutics, Inc., priority 2018, published 2022).
# Read-outs that look alike come from different tables or passages of the source.
# Tests used:
# [1] = test system: prostate cancer (5 cell lines); assay: CellTiter-Glo Viability Assay, prostate cancer; assay type: cell-based; details: Homo sapiens
# CLK2 = biological target: T1, CLK2 (Homo sapiens, UniProt P49760); assay: CLK2 kinase activity assay (Z-lyte, Ser/Thr 6 peptide); assay type: biochemical; details: recombinant CLK2 kinase, ATP 60 μM; read-out: EC50
# T1 construct: purchased Thermo Fisher (Life Technologies), Z'-LYTE Kinase Assay Kits
# T1 sequence (P49760 whole entry): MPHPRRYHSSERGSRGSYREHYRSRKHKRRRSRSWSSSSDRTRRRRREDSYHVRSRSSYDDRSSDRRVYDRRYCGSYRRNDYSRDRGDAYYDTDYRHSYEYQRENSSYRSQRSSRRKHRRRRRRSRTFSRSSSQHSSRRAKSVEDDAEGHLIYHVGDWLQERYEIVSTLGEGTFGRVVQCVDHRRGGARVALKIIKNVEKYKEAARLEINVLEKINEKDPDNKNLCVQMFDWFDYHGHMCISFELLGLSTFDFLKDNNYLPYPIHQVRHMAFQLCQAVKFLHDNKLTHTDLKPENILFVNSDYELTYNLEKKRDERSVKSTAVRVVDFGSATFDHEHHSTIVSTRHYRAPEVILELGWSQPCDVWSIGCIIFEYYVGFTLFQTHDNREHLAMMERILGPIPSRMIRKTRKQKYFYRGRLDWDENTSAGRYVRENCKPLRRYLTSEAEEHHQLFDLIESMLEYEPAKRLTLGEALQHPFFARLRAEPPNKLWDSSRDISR
# Experimental: All reactions were performed in duplicate.
# [2] = test system: liver cancer (3 cell lines); assay: CellTiter-Glo Viability Assay, liver cancer; assay type: cell-based; details: Homo sapiens, inhibition of cancer cell proliferation
# BT-549 = assay: CellTiter-Glo Viability Assay, breast cancer; assay type: cell-based; details: Homo sapiens, 96 h; BT-549, breast cancer, four days; read-out: EC50
# T47D = assay: CellTiter-Glo Viability Assay, breast cancer; assay type: cell-based; details: Homo sapiens, 96 h, breast cancer, four days, read-out: EC50
# CAMA1 = assay: CellTiter-Glo Viability Assay, breast cancer; assay type: cell-based; details: Homo sapiens, CAMA-1, 96 h; CAMA1, breast cancer, four days; read-out: EC50
# ZR-75-1 = assay: CellTiter-Glo Viability Assay, breast cancer; assay type: cell-based; details: Homo sapiens, 96 h; ZR-75-1, breast cancer, four days; read-out: EC50
# DU4475 = assay: CellTiter-Glo Viability Assay, breast cancer; assay type: cell-based; details: Homo sapiens, DU-4475, 96 h; DU4475, breast cancer, four days; read-out: EC50
# MDA-MB-231-Luc = assay: CellTiter-Glo Viability Assay, breast cancer; assay type: cell-based; details: Homo sapiens, 96 h; MDA-MB-231-Luc, breast cancer, four days; read-out: EC50
# MCF7 = assay: CellTiter-Glo Viability Assay, breast cancer; assay type: cell-based; details: Homo sapiens, 96 h; MCF7, breast cancer, four days; read-out: EC50
# HCC1599 = assay: CellTiter-Glo Viability Assay, breast cancer; assay type: cell-based; details: Homo sapiens, 96 h; HCC1599, breast cancer, four days; read-out: EC50
# [3] = test system: ovarian cancer (4 cell lines); assay: CellTiter-Glo Viability Assay, ovarian cancer; assay type: cell-based; details: Homo sapiens, inhibition of cancer cell proliferation
# [4] = test system: lung cancer (4 cell lines); assay: CellTiter-Glo Viability Assay, lung cancer; assay type: cell-based; details: Homo sapiens, inhibition of cancer cell proliferation
# [5] = test system: colorectal cancer (6 cell lines); assay: CellTiter-Glo Viability Assay, colorectal cancer; assay type: cell-based; details: Homo sapiens, inhibition of cancer cell proliferation
# CLK3 = CLK3 (Homo sapiens, UniProt P49761); assay: CLK3 kinase activity assay (Z-lyte, Ser/Thr 18 peptide)
# Sequence of CLK3 (P49761 whole entry): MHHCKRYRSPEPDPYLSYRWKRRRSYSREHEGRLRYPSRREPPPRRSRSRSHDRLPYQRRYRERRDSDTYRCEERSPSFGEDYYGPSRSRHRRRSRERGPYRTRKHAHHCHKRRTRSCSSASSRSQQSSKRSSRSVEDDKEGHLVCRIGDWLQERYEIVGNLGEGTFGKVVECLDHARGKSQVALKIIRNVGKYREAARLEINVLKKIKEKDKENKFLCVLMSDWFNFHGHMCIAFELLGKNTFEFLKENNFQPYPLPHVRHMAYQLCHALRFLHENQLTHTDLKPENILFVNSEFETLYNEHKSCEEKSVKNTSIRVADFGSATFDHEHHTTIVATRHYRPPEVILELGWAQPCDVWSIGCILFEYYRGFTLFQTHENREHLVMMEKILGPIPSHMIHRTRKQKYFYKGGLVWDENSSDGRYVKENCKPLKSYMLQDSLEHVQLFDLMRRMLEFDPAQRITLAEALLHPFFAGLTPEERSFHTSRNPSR
# [6] = test system: haematopoietic & lymphoid tumors (13 cell lines); assay: CellTiter-Glo Viability Assay, haematopoietic & lymphoid tumors; assay type: cell-based; details: Homo sapiens, inhibition of cancer cell proliferation
# all 50 cell lines = assay: CellTiter-Glo Viability Assay, average across all cell lines; assay type: cell-based; details: Homo sapiens; across all 50 cell lines; read-out: average EC50 for inhibition of cancer cell proliferation
# In short: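 4-day proliferation, 37° C/5% CO2; 300-3,000 cells/well; compound in duplicate vs DMSO controls. Panel: breast, colorectal, heme/lymphoid, liver, lung, ovarian, pancreatic, prostate lines. Read-out: CellTiter-Glo ATP luminescence, EC50 from dose-response.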
# [7] = test system: pancreatic cancer (8 cell lines); assay: CellTiter-Glo Viability Assay, pancreatic cancer; assay type: cell-based; details: Homo sapiens, inhibition of cancer cell proliferation
smiles,measurement,setting,value
O=C1CCc2cccc(c2)-c2cncc3[nH]c(nc23)-c2n[nH]c3ccc(cc23)-c2cncc(c2)N1 [Compound 55],EC50,"[1]; DU-145, read-out: Prostate cancer EC50 Du-145",> 3.5 µM
same,EC50,"[1]; PC-3, PC3 cell line, inhibition of cancer cell proliferation, read-out: Prostate cancer EC50 PC3",3.36 µM
same,EC50,"[1]; 22Rv1 cell line, inhibition of cancer cell proliferation, read-out: Prostate cancer EC50 22Rv1",> 3.5 µM
same,EC50,"[1]; LNCap clone FGC cell line, inhibition of cancer cell proliferation, read-out: Prostate cancer EC50 LNCap clone FGC",> 3.5 µM
same,EC50,"[1]; VCaP (Sigma) cell line, inhibition of cancer cell proliferation, read-out: Prostate cancer EC50 VCaP (Sigma)",> 3.5 µM
same,EC50,CLK2,0.0019 µM
same,EC50,"[2]; SNU-398, SNU398 cell line, read-out: Liver cancer, EC50 SNU398",0.605 µM
same,EC50,"[2]; HEPG2 cell line, read-out: Liver cancer, EC50 HEPG2",> 3.5 µM
same,EC50,"[2]; PLC/PRF/5 cell line, read-out: Liver cancer, EC50 PLC/PRF/5",> 3.5 µM
same,EC50,BT-549,0.812 µM
same,EC50,T47D,> 3.5 µM
same,EC50,CAMA1,> 3.5 µM
same,EC50,ZR-75-1,> 3.5 µM
same,EC50,DU4475,2.8 µM
same,EC50,MDA-MB-231-Luc,> 3.5 µM
same,EC50,MCF7,> 3.5 µM
same,EC50,HCC1599,0.86 µM
same,EC50,"[3]; PA-1, PA1 cell line, read-out: Ovarian cancer, EC50 (μM) PA1",> 3.5 µM
same,EC50,"[3]; TOV112D, TOV-112D cell line, read-out: Ovarian cancer, EC50 (μM) TOV-112D",> 3.5 µM
same,EC50,"[3]; OV-90 cell line, read-out: Ovarian cancer, EC50 (μM) OV-90",> 3.5 µM
same,EC50,"[3]; OVCAR-3 cell line, read-out: Ovarian cancer, EC50 (μM) OVCAR-3",0.766 µM
same,EC50,"[4]; A-427, A427 cell line, read-out: Lung cancer, EC50 (μM) A427",3.1 µM
same,EC50,"[4]; HCC78, HCC-78 cell line, read-out: Lung cancer, EC50 (μM) HCC-78",> 3.5 µM
same,EC50,"[4]; NCI-H460 cell line, read-out: Lung cancer, EC50 (μM) NCI-H460",> 3.5 µM
same,EC50,"[4]; NCI-H522 cell line, read-out: Lung cancer, EC50 (μM) NCI-H522",2.47 µM
same,EC50,"[5]; HCT-116, HCT116 cell line, read-out: Colorectal cancer, EC50 (μM) HCT116",> 3.5 µM
same,EC50,"[5]; HT-29, HT29 cell line, read-out: Colorectal cancer, EC50 (μM) HT29",> 3.5 µM
same,EC50,"[5]; SW-620, SW620 cell line, read-out: Colorectal cancer, EC50 (μM) SW620",1.97 µM
same,EC50,"[5]; DLD-1 cell line, read-out: Colorectal cancer, EC50 (μM) DLD-1",> 3.5 µM
same,EC50,"[5]; SW48 cell line, read-out: Colorectal cancer, EC50 (μM) SW48",> 3.5 µM
same,EC50,"[5]; SW480 cell line, read-out: Colorectal cancer, EC50 (μM) SW480",> 3.5 µM
same,EC50,CLK3,0.0281 µM
same,EC50,"[6]; DND41, DND-41 cell line, read-out: Haematopoietic & Lymphoid tumors, EC50 (μM) DND-41",0.776 µM
same,EC50,"[6]; MV4-11, MV-4-11 cell line, read-out: Haematopoietic & Lymphoid tumors, EC50 (μM) MV-4-11",0.094 µM
same,EC50,"[6]; Rec1, REC-1 cell line, read-out: Haematopoietic & Lymphoid tumors, EC50 (μM) REC-1",> 3.5 µM
same,EC50,"[6]; SU-DHL-4, SUDHL4 cell line, read-out: Haematopoietic & Lymphoid tumors, EC50 (μM) SUDHL4",0.983 µM
same,EC50,"[6]; HL-60 cell line, read-out: Haematopoietic & Lymphoid tumors, EC50 (μM) HL-60",> 3.5 µM
same,EC50,"[6]; JM1 cell line, read-out: Haematopoietic & Lymphoid tumors, EC50 (μM) JM1",0.952 µM
same,EC50,"[6]; JURKAT, Clone E6-1 cell line, read-out: Haematopoietic & Lymphoid tumors, EC50 (μM) JURKAT, Clone E6-1",> 3.5 µM
same,EC50,"[6]; JeKo-1 cell line, read-out: Haematopoietic & Lymphoid tumors, EC50 (μM) JeKo-1",0.357 µM
same,EC50,"[6]; KASUMI-1 cell line, read-out: Haematopoietic & Lymphoid tumors, EC50 (μM) KASUMI-1",0.711 µM
same,EC50,"[6]; Loucy cell line, read-out: Haematopoietic & Lymphoid tumors, EC50 (μM) Loucy",1.36 µM
same,EC50,"[6]; MOLT-4 cell line, read-out: Haematopoietic & Lymphoid tumors, EC50 (μM) MOLT-4",> 3.5 µM
same,EC50,"[6]; TF-1 cell line, read-out: Haematopoietic & Lymphoid tumors, EC50 (μM) TF-1",> 3.5 µM
same,EC50,"[6]; TOLEDO cell line, read-out: Haematopoietic & Lymphoid tumors, EC50 (μM) TOLEDO",0.869 µM
same,EC50,all 50 cell lines,6.89 µM
same,EC50,"[7]; BXPC-3, BxPC3 cell line, read-out: Pancreatic cancer, EC50 BxPC3",> 3.5 µM
same,EC50,"[7]; CAPAN-1, Capan1 cell line, read-out: Pancreatic cancer, EC50 Capan1",> 3.5 µM
same,EC50,"[7]; Capan-2, Capan2 cell line, read-out: Pancreatic cancer, EC50 Capan2",> 3.5 µM
same,EC50,"[7]; MIA PaCa-2 cell line, read-out: Pancreatic cancer, EC50 MIA PaCa-2",1.69 µM
same,EC50,"[7]; PANC 05.04 cell line, read-out: Pancreatic cancer, EC50 PANC 05.04",> 3.5 µM
same,EC50,"[7]; PANC-1 cell line, read-out: Pancreatic cancer, EC50 PANC-1",> 3.5 µM
same,EC50,"[7]; UPAFII cell line, read-out: Pancreatic cancer, EC50 UPAFII",> 3.5 µM
